# Where two headings read alike, the source gives them in different places.
# How the values were obtained:
# [1] = test system: C. elegans VC3635 (pink-1 gk3615, D19 resistant); assay: IC50 on CID 2747322 resistant C. elegans strain VC3635; format: in vivo, Caenorhabditis elegans; conditions: Caenorhabditis elegans, 120 h; 5 days exposure, 2 L4 per well, three biological replicates
# Experimental: (§1) All compound libraries were stored in 96-well plates, with 80 drugs per plate (columns 1 and 12 left empty). A BioGrid BG600 pinning robot (Digilab / BioRobotics) was used for compound transfer. The robot uses a 96-pin tool (0.7 mm dia.) to transfer a nominal volume of 340 nL of compound. For retesting, compounds were hand pinned from the original library plates to assay plates using a single 0.7 mm dia. pin. The assay plates were 96-well clear flat-bottom microplates containing 2% χ1666 E.coli bacteria in 0.5X Liquid Nematode Growth Media (LNGM) plus cholesterol (Bacteria were mass-grown in rich media, and harvested by centrifugation to produce a thick paste of bacterial cells that was kept frozen at -20°C. Cells were resuspended at 2% W/V in 0.5X LNGM to produce liquid worm food). Using a COPAS Biosort (Union Biometrica), two L4 to young adult stage VC2010 worms were added to each well of the plate in a final volume of 45 μL. After five days of exposure to the compounds, the plates were scanned and the data analyzed. A five day time period was chosen to be able to observe effects over all stages of the life cycle and through at least one round of replication. The initial proof-of-principle primary screen was performed manually using a dissecting microscope. Phenotypes scored included decreased motility, reduced brood size, and/or death as described previously. For high throughput screening of the Chembridge and Maybridge compound libraries we used the program WormScan, which was adapted for screening 96-well flat-bottom LNGM plates. Using WormScan it was possible to screen four 96-well plates at a time. Plates were scanned twice, at a resolution of 1200 dots per inch, 16-bit grayscale, producing a jpeg image. The light intensity produced by the scanner was sufficient to cause negative phototaxis equivalent to a physical stimulus for mortality determination. The time required to scan four 96-well plates using an Epson Perfection V700 Photo Scanner was less than ten minutes. The time to screen a single plate was less than 1.2 minutes, with less than ten seconds between scans.
# (§2) WormScan was used to screen for the same phenotypes as in the manual screen (reduced brood size, reduced behavior/motility response and increased mortality). Two sequential scans for each 96-well plate were aligned to a reference region of interest (ROI). Image analysis was based on a difference image score calculated for each ROI. The difference image score (WormScan score) was normalized using a “percent of control” method to derive a normalized WormScan score. […] Wild-type growth in 1% DMSO (Fig 1A) results in a normalized WormScan score of 100. Exposure to 50 nM ivermectin gives a score of 0 (Fig 1C), and complete absence of worms gives a score of 0 (Fig 1D). For the primary screen the WormScan score was calculated using custom macro scripts written for Fiji. For secondary screening and any subsequent studies the WormScan score was calculated using a standalone Java program (See supplemental). Probit regression of mortality was calculated using Mathematica 8.0.
# A standard ethyl methanesulfonate (EMS) mutagenesis protocol was carried out using VC2010 in order to generate mutants resistant to CID 2747322 exposure. First larval stage (L1) F2 progeny of mutagenized P0s were exposed to CID 2747322 at 200 μM in liquid worm food in 24-well tissue culture plates for five days at room temperature, and two independently isolated resistant lines (VC3614 and VC3615) were identified. […]
# [2] = test system: S. cerevisiae yeast strain BY4743; assay: Yeast growth rate (OD600) dose titration; format: cell-based; conditions: Saccharomyces cerevisiae; BY4743, YPD, growth rate reduced by 50%
# Experimental: The S. cerevisiae yeast strain BY4743 (MATa/α his3Δ1/his3Δ1 leu2Δ0/leu2Δ0 LYS2/lys2Δ0 met15Δ0/MET15 ura3Δ0/ura3Δ0) was used for all yeast experiments and was grown using yeast extract peptone dextrose (YPD) media at pH 7 [52]. BY4743 was grown overnight to initial log phase and was then grown with the compound identified in the C. elegans assay. The growth rate was quantified by continuously monitoring the optical density of the liquid yeast growth at OD600. The compound was screened in a dose-titration in YPD as described. The IC50 was the concentration required to reduce the growth rate or Average G value by 50% compared to a vehicle control (2% DMSO).
# [3] = test system: C. elegans VC2010 (wild type); assay: WormScan screen of C. elegans growth, fecundity, motility and mortality; format: in vivo, Caenorhabditis elegans; conditions: Caenorhabditis elegans, 120 h, 5 days exposure
# Experimental: as §1, §2
# [4] = test system: C. elegans CB193 (unc-29(e193), levamisole resistant); assay: IC50 on levamisole resistant C. elegans strain; format: in vivo, Caenorhabditis elegans; conditions: Caenorhabditis elegans, 120 h; 5 days exposure, 2 L4 per well, three biological replicates
# [5] = test system: C. elegans RB2119 (acr-23(ok2804), monepantel-resistant); assay: IC50 on amino-acetonitrile resistant C. elegans strain; format: in vivo, Caenorhabditis elegans; conditions: Caenorhabditis elegans, 120 h; 5 days exposure, 2 L4 per well, three biological replicates; read-out: IC50, strain RB2119 (amino-acetonitriles)
smiles,measurement,setting,value
"COc1ccc(OCCNC(=O)c2ccccc2C(F)(F)F)cc1 [CID 2747322, N-[2-(4-methoxyphenoxy)ethyl]-2-(trifluoromethyl)benzamide]",IC50,[1],> 500 µM
same,IC50,[2],> 1000 µM
same,IC50,"[3]; 2 L4 per well, three biological replicates, read-out: IC50, strain VC2010 (wild type)",18 µM
same,IC50,"[3]; C. elegans, read-out: Nematode IC50",18 µM
same,IC50,[4],14 µM
same,IC50,[5],5 µM
